Several values for one entry are separate records, joined by “and”; a condition that tells them apart may be missing. Equal entries are not always repeated.
What was measured:
Assay in all cases: cell-based
human KOR (Gi3) [1] = molecular target: T1, human KOR (Gi3) (Homo sapiens, UniProt P41145, N322A); settings: HEK-293T
T1 construct: expressed in transfected cells; host or cells: HEK293T

human KOR (Gi3) [2] = molecular target: T2, human KOR (Gi3) (Homo sapiens, UniProt P41145, T94V); settings: HEK-293T
T2 construct: expressed in transfected cells; host or cells: HEK293T
T2 sequence (P41145 whole entry T94V): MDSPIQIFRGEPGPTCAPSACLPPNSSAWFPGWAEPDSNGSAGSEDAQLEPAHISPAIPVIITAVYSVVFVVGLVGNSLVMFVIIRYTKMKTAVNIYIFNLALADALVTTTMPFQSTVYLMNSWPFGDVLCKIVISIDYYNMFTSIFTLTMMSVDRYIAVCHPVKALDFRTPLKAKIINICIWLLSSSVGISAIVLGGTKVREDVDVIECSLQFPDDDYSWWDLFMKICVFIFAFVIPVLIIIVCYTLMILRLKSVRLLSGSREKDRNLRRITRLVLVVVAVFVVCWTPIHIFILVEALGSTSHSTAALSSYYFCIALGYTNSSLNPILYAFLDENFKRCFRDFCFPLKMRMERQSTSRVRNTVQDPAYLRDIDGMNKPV

human KOR (Gi3) [3] = molecular target: T3, human KOR (Gi3) (Homo sapiens, UniProt P41145, E297A); settings: HEK-293T
T3 construct: expressed in transfected cells; host or cells: HEK293T
T3 sequence (P41145 whole entry E297A): as the sequence (P41145 whole entry T94V) above, with V94T, E297A counted along it

human KOR (Gi3) [4] = molecular target: T4, human KOR (Gi3) (Homo sapiens, UniProt P41145, D334A); settings: HEK-293T
T4 construct: expressed in transfected cells; host or cells: HEK293T
T4 sequence (P41145 whole entry D334A): as the sequence (P41145 whole entry T94V) above, with V94T, D334A counted along it

human KOR (Gi3) [5] = molecular target: T5, human KOR (Gi3) (Homo sapiens, UniProt P41145, K227A); settings: HEK-293T
T5 construct: expressed in transfected cells; host or cells: HEK293T
T5 sequence (P41145 whole entry K227A): as the sequence (P41145 whole entry T94V) above, with V94T, K227A counted along it

human KOR (Gi3) [6] = molecular target: T6, human KOR (Gi3) (Homo sapiens, UniProt P41145, Q115N); settings: HEK-293T
T6 construct: expressed in transfected cells; host or cells: HEK293T
T6 sequence (P41145 whole entry Q115N): as the sequence (P41145 whole entry T94V) above, with V94T, Q115N counted along it

human KOR (Gi3) [7] = molecular target: T7, human KOR (Gi3) (Homo sapiens, UniProt P41145, L253A); settings: HEK-293T
T7 construct: expressed in transfected cells; host or cells: HEK293T
T7 sequence (P41145 whole entry L253A): as the sequence (P41145 whole entry T94V) above, with V94T, L253A counted along it

human KOR (Gi3) [8] = molecular target: T8, human KOR (Gi3) (Homo sapiens, UniProt P41145, R271A); settings: HEK-293T
T8 construct: expressed in transfected cells; host or cells: HEK293T
T8 sequence (P41145 whole entry R271A): as the sequence (P41145 whole entry T94V) above, with V94T, R271A counted along it

human KOR (Gi3) [9] = molecular target: T9, human KOR (Gi3) (Homo sapiens, UniProt P41145, R257A); settings: HEK-293T
T9 construct: expressed in transfected cells; host or cells: HEK293T
T9 sequence (P41145 whole entry R257A): as the sequence (P41145 whole entry T94V) above, with V94T, R257A counted along it

human KOR (Gi3) [10] = molecular target: T10, human KOR (Gi3) (Homo sapiens, UniProt P41145, Y320L); settings: HEK-293T
T10 construct: expressed in transfected cells; host or cells: HEK293T
T10 sequence (P41145 whole entry Y320L): as the sequence (P41145 whole entry T94V) above, with V94T, Y320L counted along it

human KOR (Gi3) [11] = molecular target: T11, human KOR (Gi3) (Homo sapiens, UniProt P41145, N326A); settings: HEK-293T
T11 construct: expressed in transfected cells; host or cells: HEK293T
T11 sequence (P41145 whole entry N326A): as the sequence (P41145 whole entry T94V) above, with V94T, N326A counted along it

human KOR (Gi1) [12] = molecular target: T12, human KOR (Gi1) (Homo sapiens, UniProt P41145, G319L); settings: HEK-293T
T12 construct: expressed in transfected cells; host or cells: HEK293T
T12 sequence (P41145 whole entry G319L): as the sequence (P41145 whole entry T94V) above, with V94T, G319L counted along it

human KOR (Gi1) [13] = molecular target: T13, human KOR (Gi1) (Homo sapiens, UniProt P41145, D334A); settings: HEK-293T
T13 construct: expressed in transfected cells; host or cells: HEK293T
T13 sequence (P41145 whole entry D334A): as the sequence (P41145 whole entry T94V) above, with V94T, D334A counted along it

human KOR (Gi1) [14] = molecular target: T14, human KOR (Gi1) (Homo sapiens, UniProt P41145, T94V); settings: HEK-293T
T14 construct: expressed in transfected cells; host or cells: HEK293T
T14 sequence (P41145 whole entry T94V): as the sequence (P41145 whole entry T94V) above

human KOR (Gi1) [15] = molecular target: T15, human KOR (Gi1) (Homo sapiens, UniProt P41145, Y139L); settings: HEK-293T
T15 construct: expressed in transfected cells; host or cells: HEK293T
T15 sequence (P41145 whole entry Y139L): as the sequence (P41145 whole entry T94V) above, with V94T, Y139L counted along it

human KOR (Gi1) [16] = molecular target: T16, human KOR (Gi1) (Homo sapiens, UniProt P41145)
T16 construct: expressed in transfected cells; host or cells: HEK293T
T16 sequence (P41145 whole entry): as the sequence (P41145 whole entry T94V) above, with V94T counted along it

human KOR (Gi1) [17] = molecular target: T17, human KOR (Gi1) (Homo sapiens, UniProt P41145, D155A); settings: HEK-293T
T17 construct: expressed in transfected cells; host or cells: HEK293T
T17 sequence (P41145 whole entry D155A): as the sequence (P41145 whole entry T94V) above, with V94T, D155A counted along it

human KOR (β-arrestin 2) [18] = molecular target: T18, human KOR (β-arrestin 2) (Homo sapiens, UniProt P41145, Q115N); settings: HEK-293T
T18 construct: expressed in transfected cells; host or cells: HEK293T
T18 sequence (P41145 whole entry Q115N): as the sequence (P41145 whole entry T94V) above, with V94T, Q115N counted along it

human KOR (β-arrestin 2) [19] = molecular target: T19, human KOR (β-arrestin 2) (Homo sapiens, UniProt P41145, D155A); settings: HEK-293T
T19 construct: expressed in transfected cells; host or cells: HEK293T
T19 sequence (P41145 whole entry D155A): as the sequence (P41145 whole entry T94V) above, with V94T, D155A counted along it

human KOR (β-arrestin 2) [20] = molecular target: T20, human KOR (β-arrestin 2) (Homo sapiens, UniProt P41145, T94V); settings: HEK-293T
T20 construct: expressed in transfected cells; host or cells: HEK293T
T20 sequence (P41145 whole entry T94V): as the sequence (P41145 whole entry T94V) above

human KOR (β-arrestin 2) [21] = molecular target: T21, human KOR (β-arrestin 2) (Homo sapiens, UniProt P41145, D266A); settings: HEK-293T
T21 construct: expressed in transfected cells; host or cells: HEK293T
T21 sequence (P41145 whole entry D266A): as the sequence (P41145 whole entry T94V) above, with V94T, D266A counted along it

human KOR (β-arrestin 2) [22] = molecular target: T22, human KOR (β-arrestin 2) (Homo sapiens, UniProt P41145, K227A); settings: HEK-293T
T22 construct: expressed in transfected cells; host or cells: HEK293T
T22 sequence (P41145 whole entry K227A): as the sequence (P41145 whole entry T94V) above, with V94T, K227A counted along it

human KOR (β-arrestin 2) [23] = molecular target: T23, human KOR (β-arrestin 2) (Homo sapiens, UniProt P41145, F114L); settings: HEK-293T
T23 construct: expressed in transfected cells; host or cells: HEK293T
T23 sequence (P41145 whole entry F114L): as the sequence (P41145 whole entry T94V) above, with V94T, F114L counted along it

human KOR (β-arrestin 2) [24] = molecular target: T24, human KOR (β-arrestin 2) (Homo sapiens, UniProt P41145, R271A); settings: HEK-293T
T24 construct: expressed in transfected cells; host or cells: HEK293T
T24 sequence (P41145 whole entry R271A): as the sequence (P41145 whole entry T94V) above, with V94T, R271A counted along it

human KOR (β-arrestin 2) [25] = molecular target: T25, human KOR (β-arrestin 2) (Homo sapiens, UniProt P41145, R274A); settings: HEK-293T
T25 construct: expressed in transfected cells; host or cells: HEK293T
T25 sequence (P41145 whole entry R274A): as the sequence (P41145 whole entry T94V) above, with V94T, R274A counted along it

human KOR (β-arrestin 2) [26] = molecular target: T26, human KOR (β-arrestin 2) (Homo sapiens, UniProt P41145, G319L); settings: HEK-293T
T26 construct: expressed in transfected cells; host or cells: HEK293T
T26 sequence (P41145 whole entry G319L): as the sequence (P41145 whole entry T94V) above, with V94T, G319L counted along it

human KOR (β-arrestin 2) [27] = molecular target: T27, human KOR (β-arrestin 2) (Homo sapiens, UniProt P41145, N141A); settings: HEK-293T
T27 construct: expressed in transfected cells; host or cells: HEK293T
T27 sequence (P41145 whole entry N141A): as the sequence (P41145 whole entry T94V) above, with V94T, N141A counted along it

human KOR (β-arrestin 2) [28] = molecular target: T28, human KOR (β-arrestin 2) (Homo sapiens, UniProt P41145)
T28 construct: expressed in transfected cells; host or cells: HEK293T
T28 sequence (P41145 whole entry): as the sequence (P41145 whole entry T94V) above, with V94T counted along it

human KOR (β-arrestin 2) [29] = molecular target: T29, human KOR (β-arrestin 2) (Homo sapiens, UniProt P41145, D334A); settings: HEK-293T
T29 construct: expressed in transfected cells; host or cells: HEK293T
T29 sequence (P41145 whole entry D334A): as the sequence (P41145 whole entry T94V) above, with V94T, D334A counted along it

human KOR (β-arrestin 2) [30] = molecular target: T30, human KOR (β-arrestin 2) (Homo sapiens, UniProt P41145, N322A); settings: HEK-293T
T30 construct: expressed in transfected cells; host or cells: HEK293T
T30 sequence (P41145 whole entry N322A): as the sequence (P41145 whole entry T94V) above, with V94T, N322A counted along it

human KOR (β-arrestin 2) [31] = molecular target: T31, human KOR (β-arrestin 2) (Homo sapiens, UniProt P41145, Y320L); settings: HEK-293T
T31 construct: expressed in transfected cells; host or cells: HEK293T
T31 sequence (P41145 whole entry Y320L): as the sequence (P41145 whole entry T94V) above, with V94T, Y320L counted along it

human KOR (β-arrestin 2) [32] = molecular target: T32, human KOR (β-arrestin 2) (Homo sapiens, UniProt P41145, F283A); settings: HEK-293T
T32 construct: expressed in transfected cells; host or cells: HEK293T
T32 sequence (P41145 whole entry F283A): as the sequence (P41145 whole entry T94V) above, with V94T, F283A counted along it

human KOR (β-arrestin 2) [33] = molecular target: T33, human KOR (β-arrestin 2) (Homo sapiens, UniProt P41145, E297A); settings: HEK-293T
T33 construct: expressed in transfected cells; host or cells: HEK293T
T33 sequence (P41145 whole entry E297A): as the sequence (P41145 whole entry T94V) above, with V94T, E297A counted along it

human KOR (β-arrestin 2) [34] = molecular target: T34, human KOR (β-arrestin 2) (Homo sapiens, UniProt P41145, R257A); settings: HEK-293T
T34 construct: expressed in transfected cells; host or cells: HEK293T
T34 sequence (P41145 whole entry R257A): as the sequence (P41145 whole entry T94V) above, with V94T, R257A counted along it

human KOR (β-arrestin 2) [35] = molecular target: T35, human KOR (β-arrestin 2) (Homo sapiens, UniProt P41145, K200A); settings: HEK-293T
T35 construct: expressed in transfected cells; host or cells: HEK293T
T35 sequence (P41145 whole entry K200A): as the sequence (P41145 whole entry T94V) above, with V94T, K200A counted along it

human KOR (β-arrestin 2) [36] = molecular target: T36, human KOR (β-arrestin 2) (Homo sapiens, UniProt P41145, R170A); settings: HEK-293T
T36 construct: expressed in transfected cells; host or cells: HEK293T
T36 sequence (P41145 whole entry R170A): as the sequence (P41145 whole entry T94V) above, with V94T, R170A counted along it

human KOR (β-arrestin 2) [37] = molecular target: T37, human KOR (β-arrestin 2) (Homo sapiens, UniProt P41145, L253A); settings: HEK-293T
T37 construct: expressed in transfected cells; host or cells: HEK293T
T37 sequence (P41145 whole entry L253A): as the sequence (P41145 whole entry T94V) above, with V94T, L253A counted along it

human KOR (β-arrestin 2) [38] = molecular target: T38, human KOR (β-arrestin 2) (Homo sapiens, UniProt P41145, Y139L); settings: HEK-293T
T38 construct: expressed in transfected cells; host or cells: HEK293T
T38 sequence (P41145 whole entry Y139L): as the sequence (P41145 whole entry T94V) above, with V94T, Y139L counted along it

T1 sequence (P41145 whole entry N322A): as the sequence (P41145 whole entry T94V) above, with V94T, N322A counted along it

CN(C(=O)/C=C/c1ccoc1)[C@@H]1CC[C@@]2(O)[C@H]3Cc4ccc(O)c5c4[C@@]2(CCN3CC2CC2)[C@H]1O5 [Nalfurafine, nalfurafine]
Emax (human KOR (Gi3) [1]): 95.8% | Emax (human KOR (Gi3) [2]): 98.2% | Emax (human KOR (Gi3) [3]): 100% | Emax (human KOR (Gi3) [4]): 101% | Emax (human KOR (Gi3) [5]): 106% | Emax (human KOR (Gi3) [6]): 78.7% | Emax (human KOR (Gi3) [7]): 104% | Emax (human KOR (Gi3) [8]): 103% | Emax (human KOR (Gi3) [9]): 100% | Emax (human KOR (Gi3) [10]): 66.9% | Emax (human KOR (Gi3) [11]): 106% | Emax (human KOR (Gi1) [12]): 116% | Emax (human KOR (Gi1) [13]): 77.5% | Emax (human KOR (Gi1) [14]): 99.2% | Emax (human KOR (Gi1) [15]): 96.7% | Emax% (human KOR (Gi1) [16]): 101.1% and 100% | Emax (human KOR (Gi1) [16]; HEK-293T): 85 ± 7% | Emax (human KOR (Gi1) [17]): 79.1% | Emax (human KOR (β-arrestin 2) [18]): 67% | Emax (human KOR (β-arrestin 2) [19]): 90.2% | Emax (human KOR (β-arrestin 2) [20]): 87.5% | Emax (human KOR (β-arrestin 2) [21]): 101% | Emax (human KOR (β-arrestin 2) [22]): 97.5% | Emax (human KOR (β-arrestin 2) [23]): 48.7% | Emax (human KOR (β-arrestin 2) [24]): 101 ± 8.2% | Emax (human KOR (β-arrestin 2) [25]): 83.3% | Emax (human KOR (β-arrestin 2) [26]): 71% | Emax (human KOR (β-arrestin 2) [27]): 90.6% | Emax% (human KOR (β-arrestin 2) [28]): 80% | Emax (human KOR (β-arrestin 2) [28]; HEK-293T): 100 ± 4% | Emax (human KOR (β-arrestin 2) [29]): 78% | Emax (human KOR (β-arrestin 2) [30]): 87.1% | Emax (human KOR (β-arrestin 2) [31]): 65.9% | Emax (human KOR (β-arrestin 2) [32]): 100% | Emax (human KOR (β-arrestin 2) [33]): 101% | Emax (human KOR (β-arrestin 2) [34]): 103% | Emax (human KOR (β-arrestin 2) [35]): 83.2% | Emax (human KOR (β-arrestin 2) [36]): 100 ± 8.6% | Emax (human KOR (β-arrestin 2) [37]): 107% | Emax (human KOR (β-arrestin 2) [38]): 113%

From publication PMC10008561 (Nature Communications, 2023)
